Here are results for 20 molecules from ChEMBL document CHEMBL1201862, “PubChem BioAssay data set” (2004).

Active and inactive are the calls of the source.

Test [1] in a line: LGR2 antagonists, dose response, cell-based, HEK293, CRE-luciferase reporter, cherry pick, set 2 (AID 743343).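 Also: transfected cells were stimulated with diluted bursicon conditioned medium after compound addition.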 It is filed as functional. For orientation: A reporter such as luciferase makes a cellular process visible.
The nature of test [2]: MC4R antagonists, dose response, counter-screen for LGR2 antagonist project, cell-based, plate reader, cherry pick (AID 743444).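 Also: transfected HEK 293 cells stimulated with alpha-MSH peptide; potency of inhibitors of the alpha-MSH evoked signal.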 It is filed as functional. In general terms: A counterscreen serves to expose hits that act by an unwanted route or on another target.
Test [3] in a line: A549 cell cytotoxicity, dose response, cytotoxicity control, plate reader, cherry-pick, antagonist series (AID 743412). It counts as functional, cell-based.
In the next test the target is Cytochrome P450 3A4 (Homo sapiens, UniProt P08684). The following applies: Potency.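 Also: confirmatory qHTS run detecting inhibitors and substrates of CYP3A4.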
Test [4] has as its target T1, DNA repair and recombination protein RAD54-like (Homo sapiens, UniProt Q92698).
T1 sequence (Q92698 whole entry): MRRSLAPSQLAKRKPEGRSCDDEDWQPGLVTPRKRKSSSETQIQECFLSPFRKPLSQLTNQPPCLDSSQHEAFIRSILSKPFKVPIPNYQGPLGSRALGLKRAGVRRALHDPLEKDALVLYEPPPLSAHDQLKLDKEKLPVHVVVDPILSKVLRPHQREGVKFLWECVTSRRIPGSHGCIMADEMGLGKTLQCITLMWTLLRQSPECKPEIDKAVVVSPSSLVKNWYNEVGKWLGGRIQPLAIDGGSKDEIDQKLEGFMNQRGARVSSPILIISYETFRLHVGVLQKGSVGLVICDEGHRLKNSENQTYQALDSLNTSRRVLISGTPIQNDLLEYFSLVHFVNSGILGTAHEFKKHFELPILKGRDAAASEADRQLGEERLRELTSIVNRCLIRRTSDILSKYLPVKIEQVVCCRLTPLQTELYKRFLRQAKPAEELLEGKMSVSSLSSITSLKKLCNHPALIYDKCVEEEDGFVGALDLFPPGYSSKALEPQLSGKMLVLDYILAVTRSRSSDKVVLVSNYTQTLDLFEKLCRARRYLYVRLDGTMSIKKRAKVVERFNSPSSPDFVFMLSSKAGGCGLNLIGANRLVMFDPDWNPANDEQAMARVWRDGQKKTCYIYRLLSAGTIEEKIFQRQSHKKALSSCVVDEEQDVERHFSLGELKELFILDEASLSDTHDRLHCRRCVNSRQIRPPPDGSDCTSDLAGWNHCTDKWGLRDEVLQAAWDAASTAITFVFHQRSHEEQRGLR
Kind of test: inhibitors of human RAD54 branch migration, confirmation, biochemical, fluorescence, cherry-picked samples, dose series (AID 651657). It is filed as functional.

Test [5] addresses T2, Ubiquitin-conjugating enzyme E2 N (Homo sapiens, UniProt P61088).
T2 sequence (P61088 whole entry): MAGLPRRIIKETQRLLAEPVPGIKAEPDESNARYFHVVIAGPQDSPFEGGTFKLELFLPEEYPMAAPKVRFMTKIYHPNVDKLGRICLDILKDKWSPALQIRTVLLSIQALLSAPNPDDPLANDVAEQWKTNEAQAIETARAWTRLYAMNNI
It counts as functional.

Test [6] in a line: inhibitors of HIV Env-driven cell fusion, dose response, cherry-pick (AID 652057). It counts as functional, cell-based.
Test [7] in a line: inhibitors of clade B AD8 Env fusion, dose response, cell-based, cherry-pick (AID 652062).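 Also: luciferase signal from cell-cell fusion driven by HIV-1 clade B AD8 Env; potency is for inhibitors of fusion seen as a drop in luminescence.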 It is filed as functional.
Test [8] is described as follows: ZM109 Env clade C HIV-1 fusion inhibitors, dose response, HeLa effector, CEM target cells, luciferase, cherry-pick (AID 652058). It is filed as functional, cell-based.
Test [9] in a line: off-target signal loss in HeLa-CEM21 co-culture – HeLa F-luc CTL cells, cherry-picked, counter-screen for HIV-1 Env fusion inhibitor project, dose response (AID 652040).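 Also: potency for signal decrease marking cytotoxic or nonspecific inhibition.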 It counts as functional, cell-based.
The nature of test [10]: cells. It counts as functional, cell-based.
Test [11] has as its target T3, Trace amine-associated receptor 1 (Homo sapiens, UniProt Q96RJ0).
T3 sequence (Q96RJ0 whole entry): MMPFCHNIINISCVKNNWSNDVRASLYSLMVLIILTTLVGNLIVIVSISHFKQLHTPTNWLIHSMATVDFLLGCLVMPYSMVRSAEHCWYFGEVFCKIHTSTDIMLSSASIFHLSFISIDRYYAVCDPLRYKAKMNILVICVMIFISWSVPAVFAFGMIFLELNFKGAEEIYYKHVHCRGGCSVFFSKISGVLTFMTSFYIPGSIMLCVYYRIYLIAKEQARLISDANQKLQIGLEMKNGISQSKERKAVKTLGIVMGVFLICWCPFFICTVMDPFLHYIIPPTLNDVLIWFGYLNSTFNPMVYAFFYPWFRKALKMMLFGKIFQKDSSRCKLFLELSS
Nature of the test: Fluorescence-based cell-based high throughput dose response assay to identify agonists of the human trace amine associated receptor 1 (TAAR1). It is filed as functional.

Test [12] can be described thus: cells. It is filed as functional, cell-based. The source holds these as a separate data set.
The target of test [13] is T3, Trace amine-associated receptor 1. Nature of the test: Counterscreen for agonists of the human trace amine associated receptor 1 (hTAAR1): Fluorescence-based cell-based high throughput dose response assay to identify hTAAR1 agonist that also desensitize TAAR1 receptor response. It is filed as functional.
Test [14] is described as follows: Luminescence Cell-Based Dose Response HTS to Identify Activators of Luciferase Translation or Activity in H4 […] Cells. [Related pubchem assays: 1829 (Project Summary), 1814 (Primary HTS)]. It counts as functional.
In another test the test system is H4. Kind of test: Luminescence Cell-Based Dose Response HTS to Identify Activators of 5'UTR Stem-Loop Driven Prion Protein mRNA Translation in H4 Neuroglioblastoma Cells. [Related pubchem assays: 1829 (Project Summary), 1814 (Primary HTS)]. It counts as functional. The following applies: Homo sapiens.
Test [15] can be described thus: Luminescence Cell-Based Dose Confirmation HTS to Identify Activators of 5'UTR Stem-Loop Driven Alpha-Synuclein mRNA Translation in H4 Neuroglioblastoma Cells. [Related pubchem assays: 1829 (Project Summary), 1814 (Primary HTS)]. It is filed as functional.
Test [16] is described as follows: cells. It is filed as functional.
Test [17] is described as follows: THP-1 cell cytotoxicity, dose response, cytotoxicity control for non-replicating M. tuberculosis project (AID 489025). It is filed as functional.
Test [18] has as its system BJ. Nature of the test: cytotoxicity toward BJ-TERT-LT-ST fibroblasts, dose response, cell-based, RAS-independent, luminescence (AID 1935).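 Also: BJ fibroblasts immortalized with TERT plus LT and ST oncogenes.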 It is filed as functional. The following applies: Homo sapiens.
Test [19] concerns BJ. Nature of the test: cells. It is filed as functional, cell-based. As to conditions: Homo sapiens.
The test system of test [20] is BJ. Kind of test: cytotoxicity toward BJ-TERT fibroblasts, dose response, cell-based, RAS-independent, luminescence (AID 1933). It is filed as functional. The following applies: Homo sapiens.
The nature of test [21]: cytotoxicity toward DRD oncogenic fibroblasts, dose response, cell-based, non-viral oncogenic, luminescence (AID 1934). It counts as functional. The following applies: Homo sapiens.
In another test the target is Paired box protein Pax-8 (Homo sapiens, UniProt Q06710). Nature of the test: inhibitors of PAX8-driven TPO luciferase reporter, dose response, RMG-I cells, cherry-pick (AID 687027).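 Also: luciferase reporter driven by Pax8 target thyroperoxidase promoter measured by SteadyGlo luminescence.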 It is filed as functional, cell-based.
Test [22] can be described thus: NIH:OVCAR-3 ovarian cancer cell cytotoxicity, dose response, PAX8 inhibitor project, plate reader, dry powder samples (AID 743044). It counts as functional, cell-based.
The nature of test [23]: IGROV1 ovarian cancer cell cytotoxicity, dose response, PAX8 inhibitor project, plate reader, dry powder samples (AID 743043). It counts as functional, cell-based. The following applies: IGROV-1.
Test [24] can be described thus: cytotoxicity in OVCAR8 ovarian cancer cells, dose response, PAX8 project, cell-based, plate reader, dry powder samples (AID 743197). It counts as functional. As to conditions: OVCAR-8.
Test [25] in a line: P. falciparum Dd2 growth inhibitors, dose response, SYBR Green, cherry-picked samples (AID 1159567). It is filed as functional, cell-based.

Cytochrome P450 3A4, sequence (P08684 whole entry): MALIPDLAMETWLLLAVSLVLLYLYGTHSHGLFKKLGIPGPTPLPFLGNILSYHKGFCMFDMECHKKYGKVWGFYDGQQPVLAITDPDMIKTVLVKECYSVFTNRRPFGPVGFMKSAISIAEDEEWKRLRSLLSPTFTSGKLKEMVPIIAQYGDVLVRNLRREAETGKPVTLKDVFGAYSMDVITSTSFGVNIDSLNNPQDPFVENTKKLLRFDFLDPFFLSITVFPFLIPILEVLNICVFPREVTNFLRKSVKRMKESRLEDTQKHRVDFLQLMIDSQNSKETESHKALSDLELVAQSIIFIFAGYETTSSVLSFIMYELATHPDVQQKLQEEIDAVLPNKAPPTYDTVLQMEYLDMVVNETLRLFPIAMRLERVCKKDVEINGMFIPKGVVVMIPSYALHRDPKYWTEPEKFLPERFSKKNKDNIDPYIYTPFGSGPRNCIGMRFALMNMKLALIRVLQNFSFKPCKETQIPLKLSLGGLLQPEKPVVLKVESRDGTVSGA
Paired box protein Pax-8, sequence (Q06710 whole entry): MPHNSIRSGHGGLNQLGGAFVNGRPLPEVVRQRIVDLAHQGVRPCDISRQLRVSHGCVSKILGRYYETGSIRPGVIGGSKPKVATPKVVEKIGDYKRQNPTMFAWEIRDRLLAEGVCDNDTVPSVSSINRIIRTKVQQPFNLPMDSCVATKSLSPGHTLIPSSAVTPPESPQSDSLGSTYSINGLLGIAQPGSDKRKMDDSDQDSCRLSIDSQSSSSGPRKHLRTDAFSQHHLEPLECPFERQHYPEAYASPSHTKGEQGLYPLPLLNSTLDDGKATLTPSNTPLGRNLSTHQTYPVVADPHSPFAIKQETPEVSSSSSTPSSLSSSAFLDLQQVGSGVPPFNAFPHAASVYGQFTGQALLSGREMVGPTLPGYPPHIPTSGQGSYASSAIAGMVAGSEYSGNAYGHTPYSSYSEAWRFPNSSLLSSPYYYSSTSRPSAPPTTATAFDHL

On to `COCCOc1cc(NCc2ccccc2)c2ncn(C(C)C)c2c1`, for which the AC50 in test [1] is 12 µM (active); in test [2] it was 17.9 µM (active); in [3] it was 44.3 µM (active).
In the case of `CNC(=O)C1(C)C=CC2(CCCCC2)N1C(C)=O` (configuration not stated), the AC50 at Cytochrome P450 3A4 was 15.8 µM (inconclusive).
The same measure, in the same setting: in the case of `COC1=CC(=O)OC(CCc2ccccc2)C1` (configuration not stated) it was 12.6 µM (inconclusive).
In the case of `CCN(CC)CCNC(=O)c1cc2c(=O)n(C)c3ccccc3c2s1`, the AC50 in test [4] is 19.6 µM (active). In test [5], the IC50 is > 20 µM (inactive).
With `Cc1nnc(SCc2nc3ccccc3c(=O)n2-c2ccccc2Cl)n1N`, the AC50 in test [6] is 4.45 µM (active); in [7] it was 10.2 µM (active); in test [8], 4.98 µM (active); in test [9] it was 4.79 µM (active).
On to `Nc1c(NCCc2ccccc2)c2ccccc2oc1=O`, for which the EC50 was > 29.9 µM (inactive) in the test “cells [10]” and 1.86 µM (active) in test [11]. Further, the values for the IC50 (in “cells [12]”; in test [13]) were > 29.9 µM (inactive) and 6.4 µM (active), respectively.
On to `CCN(CC)CCCNC(=O)c1ccc2c3n(nc2c1)-c1ccc(Cl)cc1CO3`, for which the AC50 in test [4] is 44.5 µM (active). Further, the EC50 in [14] is 3.59 µM (active); in the test with H4, 0.334 µM (active); in test [15], 101 µM (active).
As for `COc1cc2cc[n+]3cc4c(OC)c(OC)ccc4cc3c2cc1OC`, at Cytochrome P450 3A4, the AC50 was 20 µM (inconclusive).
For the molecule `CCOC(=O)CNC(=O)CNC(=O)c1nn(-c2ccc(OC)c(Cl)c2)c(=O)c2ccccc12`, the IC50 in “cells [16]” was 17.8 µM (active). For the same molecule, the CC50 in [17] was > 40 µM (active).
Take `CCc1ccc(CN(C(=O)COc2c(C)cccc2C)C2CCS(=O)(=O)C2)cc1` (configuration not stated): the EC50 with BJ [18] is > 150 µM (inconclusive); with BJ [19], > 150 µM (not active); with BJ [20] it was > 150 µM (not active); in test [21] it was > 150 µM (not active).
With `c1ccc(-c2nc(NCCCn3ccnc3)c3oc4ccccc4c3n2)cc1`, in test [4], the AC50 was 100 µM (inactive).
In the case of `CCN1C(=O)[C@H]2[C@@H](c3ccc(C)cc3)N3C(=O)N(c4cccc(Br)c4)C(=O)[C@@]3(CC)[C@H]2C1=O`, the AC50 was 4.44 µM (active) in test [6], 1.18 µM (active) in test [7], 3.01 µM (active) in test [8] and 6.04 µM (active) in [9].
Take `COc1cccc(OC)c1C(=O)NCCc1ccccc1`: the EC50 in “cells [10]” was > 29.9 µM (inactive); in test [11] it was 2.64 µM (active). In addition, the IC50 in “cells [12]” was > 29.9 µM (inactive); in [13], 9.6 µM (active).
As to `C[C@@H]1CN([C@H](C)CO)C(=O)c2cc(NC(=O)Nc3ccc(C(F)(F)F)cc3)ccc2O[C@@H](C)CCCCO[C@@H]1CN(C)Cc1ccc2c(c1)OCO2`, the AC50 at Paired box protein Pax-8 was 5.56 µM (active); in test [22] it was 25.1 µM (active); in test [23], 28.4 µM (active); in [24] it was 26.4 µM (active).
On to `O=C(CCn1c(=S)[nH]c2cc3c(cc2c1=O)OCO3)NCCc1ccccc1Cl`, for which the EC50 in the test “cells [10]” is > 29.9 µM (inactive); in test [11], 7.04 µM (active). Also, the figures for the IC50 (in “cells [12]”; in test [13]) were > 29.9 µM (inactive) and 9.24 µM (active), respectively.
For the molecule `C[C@H](CO)N1C[C@H](C)[C@@H](CN(C)S(=O)(=O)c2cccc(F)c2)OCc2ccccc2-c2c(n(C)c3ccccc23)C1=O`, the AC50 was 4.19 µM (active) in [25], 11.1 µM (active) at Paired box protein Pax-8, 43.2 µM (active) in test [22] and > 70 µM (inactive) in test [24].
As to `C[C@@H]1CN([C@@H](C)CO)C(=O)Cc2cc(N(C)C)ccc2O[C@H]1CN(C)Cc1ccc(C(=O)Nc2ccccc2N)cc1`, the half-maximal activity concentration (AC50) on Paired box protein Pax-8 was 16.6 µM (active); in test [22], < 0.26 µM (active); in test [23] it was 45.1 µM (active); in [24], > 70 µM (inactive).
Regarding `CC1=C(C(=O)OCc2ccccc2)C(c2ccc(C(F)(F)F)cc2)NC(=O)N1CCCCCC(=O)O` (configuration not stated), the AC50 at Cytochrome P450 3A4 is 15.8 µM (inconclusive).
Take `Cc1ccsc1/C=N/NC(=O)Cn1nc(C)c([N+](=O)[O-])c1C`: the EC50 was > 29.9 µM (inactive) in “cells [10]” and 3.79 µM (active) in test [11]. In addition, the IC50 in “cells [12]” is > 29.9 µM (inactive); in test [13] it was 5.81 µM (active).
`COc1ccc(-c2cc(=O)c3c(O)c(OC)c(OC)c(OC)c3o2)cc1OC` [5-DEMETHYLNOBILETIN]: on Cytochrome P450 3A4, the AC50 is 10 µM (inconclusive).

What is called AC50 is the concentration at which the activity in the assay is half-maximal. The IC50 is the concentration that inhibits the measured activity by half. The term EC50 denotes the concentration at which the effect is half-maximal. For orientation: CC50 means the concentration giving 50% cytotoxicity.
